Assay results from ChEMBL document CHEMBL1201862, “PubChem BioAssay data set” (2004).
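96-well plates; 48 h exposure; 5 concentrations. Endpoints by linear interpolation between flanking doses. Not reached: highest tested concentration assigned. GI50 = concentration required for 50% inhibition of growth.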 Activity calls are given as the source filed them. No stated cut-off is given here; in the data, active = GI50 up to about 1.1 µM and inactive = higher.

How the values were obtained:
Assay in all cases: NCI anticancer screen, dose series, 48 h
A549 = tested on: A549
ACHN = tested on: ACHN
CAKI-1 = tested on: CAKI-1
CCRF-CEM = tested on: CCRF-CEM
DU-145 = tested on: DU-145
IGROV-1 = tested on: IGROV-1
MDA-MB-435 = tested on: MDA-MB-435
NCI-H460 = tested on: NCI-H460
NCI/ADR-RES = tested on: NCI/ADR-RES
OVCAR-8 = tested on: OVCAR-8
SF-295 = tested on: SF-295
SK-MEL-5 = tested on: SK-MEL-5
SN12C = tested on: SN12C
SNB-75 = tested on: SNB-75
SW-620 = tested on: SW-620
TK-10 = tested on: TK-10
UACC-257 = tested on: UACC-257
HL-60 = tested on: HL-60
M14 = tested on: M14

Measured: GI50

COC(=O)C(CC12CC3CC(CC(C3)C1)C2)NC(=O)C(N)CC(=O)O (stereo not drawn)
inactive: A549 > 100 µM | ACHN > 100 µM | CAKI-1 > 100 µM | CCRF-CEM > 100 µM | DU-145 > 100 µM | IGROV-1 > 100 µM | MDA-MB-435 > 100 µM | NCI-H460 > 100 µM | NCI/ADR-RES > 100 µM | OVCAR-8 > 100 µM | SF-295 > 100 µM | SK-MEL-5 > 100 µM | SN12C > 100 µM | SNB-75 > 100 µM | SW-620 > 100 µM | TK-10 > 100 µM | UACC-257 > 100 µM

Cc1cc(C)nc(SCC(=O)OC2CC(C)CCC2C(C)C)n1 (stereo not drawn)
inactive: A549 22.6 µM | ACHN 18.7 µM | CAKI-1 20.3 µM | CCRF-CEM 16.6 µM | DU-145 34.3 µM | HL-60 19.1 µM | IGROV-1 20.6 µM | M14 16.7 µM | MDA-MB-435 23.6 µM | NCI-H460 18.8 µM | NCI/ADR-RES 17 µM | OVCAR-8 38.3 µM | SF-295 14.6 µM | SK-MEL-5 15.2 µM | SN12C 19.1 µM | SNB-75 21 µM | SW-620 19.9 µM | TK-10 34.3 µM | UACC-257 19.6 µM

CC[C@@H]1/C=C/C=C/C[C@H](C)[C@@H](O)[C@@H](C)C(=O)[C@H](C)[C@@H](O)[C@H](C)C(=O)[C@H](C)[C@@H](O)[C@H](C)/C=C/C(=O)O[C@H]2[C@@H](C)[C@@H](CC1)O[C@@]1(CC[C@@H](C)[C@@H](CC(C)O)O1)[C@@H]2C (stereo partly drawn)
inactive: CAKI-1 4.15 µM | CCRF-CEM 1.75 µM | DU-145 3.37 µM | IGROV-1 4.48 µM | M14 2.47 µM | MDA-MB-435 3.11 µM | NCI-H460 2.17 µM | SN12C 1.94 µM | SW-620 5.32 µM
active: A549 0.012 µM | ACHN 0.17 µM | HL-60 0.00847 µM | NCI/ADR-RES 0.596 µM | OVCAR-8 0.00464 µM | SF-295 < 0.0025 µM | SK-MEL-5 < 0.0025 µM | SNB-75 0.253 µM | TK-10 0.528 µM | UACC-257 < 0.0025 µM

OCC1OC(OCC(O)C(O)C(O)C(/C=N/Nc2ccccc2)=N/Nc2ccccc2)C(O)C(O)C1O (stereo not drawn)
inactive: A549 > 100 µM | ACHN 51.9 µM | CAKI-1 34.4 µM | CCRF-CEM > 100 µM | DU-145 > 100 µM | HL-60 > 100 µM | IGROV-1 5.19 µM | M14 > 100 µM | MDA-MB-435 > 100 µM | NCI-H460 30.9 µM | NCI/ADR-RES > 100 µM | OVCAR-8 > 100 µM | SF-295 78.9 µM | SK-MEL-5 > 100 µM | SN12C > 100 µM | SNB-75 > 100 µM | SW-620 > 100 µM | TK-10 > 100 µM | UACC-257 > 100 µM

O=C(O)CSC(CC(=O)c1ccc(Cl)cc1)c1ccc(Cl)cc1 (stereo not drawn)
inactive: A549 38.4 µM | ACHN 79.1 µM | CAKI-1 35.3 µM | CCRF-CEM 8.71 µM | DU-145 34.8 µM | HL-60 2.37 µM | IGROV-1 19.7 µM | M14 42.1 µM | MDA-MB-435 22.1 µM | NCI-H460 30.8 µM | NCI/ADR-RES 38.7 µM | OVCAR-8 22.3 µM | SF-295 42.4 µM | SK-MEL-5 34.4 µM | SN12C 43 µM | SNB-75 49.8 µM | SW-620 4.17 µM | TK-10 21.4 µM | UACC-257 21.2 µM
